According to publication PMC9605072, “Guanidine Derivatives of Quinazoline-2,4(1H,3H)-Dione as NHE-1 Inhibitors and Anti-Inflammatory Agents” (Life, 2022):
Entries after “also recorded” stand apart in the source; their conditions may differ.

Tests used:
rabbit platelet NHE-1 = target: T1, rabbit platelet NHE-1 (Oryctolagus cuniculus, UniProt P23791); experiment: NHE-1 inhibition assay (rabbit platelets, laser aggregometer); assay type: cell-based; details: for inhibition at 0.01 µM: 10 nM, m ± SD, n = 6
T1 construct: endogenous in cells; host or cells: rabbit platelets
Method: Inhibition of rabbit platelet NHE-1 was determined according to the method of [8, 9] in our modification, which was reported by us previously using the laser aggregometer BIOLA-220 LA (Russia).
Target compounds were evaluated as inhibitors of rabbit platelet NHE-1 (Table 1). It was shown that the substitution of H^5 with bromine decreased the activity of compounds 3b and 4b, indicating possible steric limitations of the binding site.

rabbit platelets = experiment: ADP-induced platelet aggregation assay; assay type: cell-based; details: Oryctolagus cuniculus, m ± SD, n = 5
Method: Platelet aggregation was assessed on a two-channel laser analyzer “BIOLA-220 LA” (Russia) as described previously using rabbit platelets.

rat intraocular pressure = experiment: Intraocular pressure study (TonoVet); assay type: in vivo; details: rats, 0.4% eye drops; for Max IOP Reduction: m ± SD, n = 5; for IOP-lowering activity reduction relative to 4a: vs 4a
Method: Intraocular pressure was measured on 75 adult outbred rats of both sexes with a TonoVet device (Finland) as reported by us previously.
To access the influence on rat eye aqueous humor formation, the studied compounds were administered as 0.4% eye drops. […] Introduction of 5-bromine (4b) or acyclic guanidine N^1 , N^3 -side chains (3a) led to 2- and 3-fold activity reduction, respectively.

male ICR mice = experiment: Tail suspension test (antidepressant activity); assay type: in vivo; details: mean ± SD, n = 6, vehicle 264.8 ± 11.6 s
Method: Antidepressant activity was determined on 36 male ICR mice weighing 22–25 g as described in [14] using the Panlab LE808 apparatus.
The tail suspension test was used to assess the antidepressant activity of the most-active NHE-1 inhibitors.

[1] = system: LPS-stimulated C57bl/6j peritoneal macrophages; experiment: LPS-induced nitric oxide synthesis in primary peritoneal macrophages (Griess); assay type: cell-based, mice; details: Mus musculus, Peritoneal macrophage, LPS 100 ng/mL, 22 h incubation, n = 3; for IC50: read-out: NO Synthesis IC50 ± SE
Method: (§1) Primary C57bl/6j murine macrophages were elicited with intraperitoneal injection of 3% peptone solution as per the standard procedure. Stimulation of inflammatory response was performed with E. coli O127:B8 LPS (100 ng/mL final concentration).
(§2) Nitric oxide was determined in culture supernatants as a nitrite anion with a standard Griess reagent after 22 h of incubation with test compounds at a wavelength of 550 nm with a microplate reader Infinite M200 PRO (Tecan GmbH, Grodig, Austria). Concentrations of IL-6 and TNF- α in cell supernatants were quantified with commercial ELISA kits according to the manufacturer’s instructions (Cloud-clone Corp., Katy, TX, USA).
(§3) Given our primary focus on the development of agents against cytokine-mediated tissue damage, we evaluated the target compounds as inhibitors of pro-inflammatory macrophage activation. Primary peritoneal macrophages were isolated from C57bl/6j mice, pooled, and stimulated with E. coli LPS as TLR4 agonist. Pro-inflammatory activation was assessed as nitric oxide (NO) synthesis and interleukin-6 (IL-6) secretion. The cytotoxicity of the compounds was monitored in parallel using the lactate dehydrogenase assay.

[2] = Cytotoxicity, lactate dehydrogenase (LDH) assay; assay type: cell-based, mice; details: C57bl/6j, mouse, primary peritoneal macrophages stimulated with E. coli LPS; LPS-stimulated macrophages; n = 3; read-out: LDH CC50 ± SE
Method: (§4) The activity of lactate dehydrogenase (LDH) in a cell culture medium was determined as reported by us previously with a microplate reader Infinite M200 PRO (Tecan, Austria).
as §3
(§5) In an attempt to identify safer alternatives to steroid anti-inflammatory agents, it is mandatory to evaluate lead compounds for immunodepressant activity. To do so, we determined the influence of compound 4a on macrophage phagocytosis after 72 h of incubation. Cell viability was monitored in parallel via the LDH assay.

[3] = system: LPS-stimulated C57bl/6j peritoneal macrophages; experiment: LPS-induced IL-6 secretion in primary peritoneal macrophages (ELISA); assay type: cell-based, mice; details: Mus musculus, Peritoneal macrophage; LPS 100 ng/mL; n = 3; read-out: IL-6 Secretion IC50 ± SE
Method: as §1, §2, §3

[4] = system: C57bl/6j peritoneal macrophages; experiment: Cytotoxicity, lactate dehydrogenase (LDH) assay; assay type: cell-based, mice; details: 72 h of incubation, in parallel to phagocytosis
Method: as §4, §3, §5

[5] = system: C57bl/6j peritoneal macrophages; experiment: Macrophage phagocytosis assay; assay type: cell-based, mice; details: for Macrophage spreading (visually scored): yeast-treated macrophages, 72 h
Method: The phagocytic activity of peritoneal macrophages was assessed after staining with Azur-Eosin with Romanovsky’s modifications as reported by us previously with a light microscopy using a Mikmed-6 (LOMO, Saint Petersburg, Russia) equipped with a digital camera.
as §5
(Figure 3). The mean number of phagocytosed particles per cell was […]. […] Macrophage spreading was registered and visually scored as a phenotypic marker of cell activation phagocytic capacity.

C57bl/6j mice = experiment: LPS-induced acute lung injury model; assay type: in vivo; details: for Motor activity, open field test: 2 and 22 h after LPS
Method: Prior to the experiment, C57BL/6J mice were randomized according to body weight and motor activity in an open field test. […] Animals of the control group were injected with an equal volume of the vehicle. Animals were anesthetized with isoflurane inhalation until the breathing rate decreased 1 h later. Mice were suspended by the front incisors on an inclined surgical table; the tongue was pulled out with narrow curved tweezers, and 1 mg/mL of E. coli O127:B8 LPS (Sigma-Aldrich, Israel) in 1 mL/kg sterile saline was injected into the back of the oropharynx to allow aspiration. Intact animals received an equal volume of sterile saline in a similar way.
The open field test was performed with the NPO “Open Science” (Russia) arena of 44 cm diameter and 32 cm wall height under 300 lux lighting as reported by us previously.
Mice were anesthetized with 500 mg/kg chloral hydrate (Sigma-Aldrich, Germany) intraperitoneally 24 h after LPS administration. Blood and bronchoalveolar lavage (BAL) sampling was performed as described in [13]. Leukocyte counts and the lung permeability index were determined as described by us previously.
Histological and immunohistological assessment of tissue sections was performed in a semi-quantitative way on paraffin sections after hematoxylin and eosin staining with a light microscope (Zeiss, Germany) with double-blinding. The degree of inflammation was determined as previously reported.
Lung injury was assessed 24 h later based on behavioral, biochemical, cytological, and morphological alterations.

[6] = 4a 50 mg/kg (30 mg/kg in source) i.p.
[7] = 4a 50 mg/kg (30 mg/kg in source) i.p., 24 h after LPS
[8] = dexamethasone 5 mg/kg i.p., 24 h after LPS

T1 sequence (P23791 whole entry): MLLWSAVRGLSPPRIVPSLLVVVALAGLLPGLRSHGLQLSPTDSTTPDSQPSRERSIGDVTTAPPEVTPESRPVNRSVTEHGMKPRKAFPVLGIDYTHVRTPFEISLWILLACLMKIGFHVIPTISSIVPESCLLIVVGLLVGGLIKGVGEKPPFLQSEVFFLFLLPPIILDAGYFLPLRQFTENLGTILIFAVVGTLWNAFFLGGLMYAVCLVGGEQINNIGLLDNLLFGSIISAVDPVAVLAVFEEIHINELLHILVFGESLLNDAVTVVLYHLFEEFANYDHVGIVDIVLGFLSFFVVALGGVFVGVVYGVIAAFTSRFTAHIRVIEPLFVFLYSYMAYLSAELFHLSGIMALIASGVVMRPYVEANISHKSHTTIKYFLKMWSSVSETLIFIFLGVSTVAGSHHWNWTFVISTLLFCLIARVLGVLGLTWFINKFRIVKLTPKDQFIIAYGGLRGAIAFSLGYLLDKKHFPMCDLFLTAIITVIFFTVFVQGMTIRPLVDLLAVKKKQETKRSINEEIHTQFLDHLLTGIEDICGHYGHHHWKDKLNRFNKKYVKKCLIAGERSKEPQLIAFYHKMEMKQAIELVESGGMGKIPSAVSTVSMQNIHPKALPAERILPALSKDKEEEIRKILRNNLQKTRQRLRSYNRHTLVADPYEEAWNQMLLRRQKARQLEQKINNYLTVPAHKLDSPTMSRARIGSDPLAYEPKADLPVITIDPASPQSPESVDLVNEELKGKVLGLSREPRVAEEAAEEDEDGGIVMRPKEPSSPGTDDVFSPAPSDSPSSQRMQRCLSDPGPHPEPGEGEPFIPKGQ

N=C(N)NC(=O)c1nc(Cl)c(N)nc1N [Amiloride, amiloride, reference compound]
inhibition at 0.01 µM (rabbit platelet NHE-1; rabbit platelets): 5.39 ± 1.82%
IC50 (rabbit platelet NHE-1; rabbit platelets): 1.23 µM
inhibition at 100 µM (rabbit platelets): 67.6 ± 1%
Max IOP Reduction (rat intraocular pressure): 18.39 ± 14.58%
Immobilization Time (male ICR mice; 2.6 mg/kg): 172.7 ± 8.54 s
IC50 [1]: 0.62 ± 0.05 µM
CC50 [2]: > 100 µM

CC(=O)Oc1ccccc1C(=O)O [Acetylsalicylic acid, acetylsalicylic acid, reference compound]
inhibition at 100 µM (rabbit platelets): 31.6 ± 4.6%

CN(C)CCCN1c2ccccc2CCc2ccccc21 [Imipramine, imipramine]
Immobilization Time (male ICR mice; 8 mg/kg): 112.5 ± 20.56 s

N=C(N)NC(=O)Cn1c(=O)c2ccccc2n(CC(=O)NC(=N)N)c1=O [Compound 3a, 2,2’-(2,4-Dioxoquinazoline-1,3(2H,4H)-diyl)bis(N-carbamimidoylacetamide)]
inhibition at 0.01 µM (rabbit platelet NHE-1; rabbit platelets): 37.2 ± 5.97%
NHE-1 IC50 (rabbit platelet NHE-1; rabbit platelets): nanomolar range
inhibition at 100 µM (rabbit platelets): 44.3 ± 14.3%
Max IOP Reduction (rat intraocular pressure): 10.08 ± 5.8%
IOP-lowering activity reduction relative to 4a (rat intraocular pressure): 3 fold
IC50 [1]: > 100 µM
IC50 [3]: > 100 µM
CC50 [2]: > 100 µM
melting point: 336 to 338 °C

Nc1nnc(Cn2c(=O)c3cc(Br)ccc3n(Cc3nnc(N)[nH]3)c2=O)[nH]1 [Compound 4b, 1,3-Bis[(5-amino-4H-1,2,4-triazol-3-yl)methyl]-6-bromoquinazoline-2,4(1H,3H)-dione]
inhibition at 0.01 µM (rabbit platelet NHE-1; rabbit platelets): 16.2 ± 3.75%
inhibition at 100 µM (rabbit platelets): 47.4 ± 8.9%
Max IOP Reduction (rat intraocular pressure): 15.45 ± 9.39%
IOP-lowering activity reduction relative to 4a (rat intraocular pressure): 2 fold
Immobilization Time (male ICR mice; 4.9 mg/kg): 168.2 ± 19.52 s
IC50 [1]: 71 ± 4.89 µM
IC50 [3]: 64.8 ± 4.31 µM
CC50 [2]: > 100 µM
melting point: > 400 °C

Nc1nnc(Cn2c(=O)c3ccccc3n(Cc3nnc(N)[nH]3)c2=O)[nH]1 [Compound 4a, 1,3-Bis[(5-amino-4H-1,2,4-triazol-3-yl)methyl]quinazoline-2,4(1H,3H)-dione]
inhibition at 0.01 µM (rabbit platelet NHE-1; rabbit platelets): 29.4 ± 4.4%
IC50 (rabbit platelet NHE-1; rabbit platelets): 0.324 µM
NHE-1 potency relative to amiloride (rabbit platelet NHE-1; ratio of IC50 vs amiloride): exceeding amiloride by four times
inhibition at 100 µM (rabbit platelets): 39.3 ± 11.9%
Max IOP Reduction (rat intraocular pressure): 28.25 ± 7.92%
Immobilization Time (male ICR mice; 4.0 mg/kg): 164.4 ± 23.19 s
IC50 [1]: 73 ± 7.83 µM
IC50 [3]: 51.8 ± 1.65 µM
CC50 [2]: > 100 µM
Cell viability (LDH assay) [4]: slightly decreased
Decrease of the mean number of phagocytosed particles ([5]; 72 h of incubation): 23%
Phagocytic activity ([5]; 72 h of incubation): insignificantly influenced
Macrophage spreading (visually scored) [5]: marginally reduced spreading
Exploratory activity, open field test (C57bl/6j mice; [6]): comparably improved exploratory activity
Motor activity, open field test (C57bl/6j mice; [6]): restored the motor activity of animals
CD68+ macrophage accumulation in lung tissue (immunostaining) (C57bl/6j mice; [7]): effectively limited LPS-induced inflammation
Lung tissue histology (hematoxylin and eosin) (C57bl/6j mice; [7]): reduced LPS-induced inflammation in mouse lung tissue
Plasma IL-6 (C57bl/6j mice; [7]): significantly reduced plasma IL-6
Pulmonary (alveolar) vessel permeability (C57bl/6j mice; [7]): preserved pulmonary vessels’ permeability
Segmented neutrophils in BAL (C57bl/6j mice; [7]): significantly ameliorated the accumulation of segmented neutrophils; also recorded: most pronounced inhibition of the neutrophil migration
melting point: 314 to 318 °C

N=C(N)NC(=O)Cn1c(=O)c2cc(Br)ccc2n(CC(=O)NC(=N)N)c1=O [Compound 3b, 2,2’-(6-Bromo-2,4-dioxoquinazoline-1,3(2H,4H)-diyl)bis(N-carbamimidoylacetamide)]
inhibition at 0.01 µM (rabbit platelet NHE-1; rabbit platelets): 10.2 ± 3.72%
inhibition at 100 µM (rabbit platelets): 46.4 ± 9.2%
Max IOP Reduction (rat intraocular pressure): 24.17 ± 5.05%
IC50 [1]: > 100 µM
IC50 [3]: > 100 µM
CC50 [2]: > 100 µM
melting point: > 400 °C

N=C(N)NC(=O)c1cnn(-c2cccc3ncccc23)c1C1CC1 [Zoniporide, zoniporide, reference compound]
EC50 ([1]; printed as EC50 in the IC50 column, read-out: NO Synthesis EC50 ± SE): 15.6 µM
IC50 [3]: > 100 µM
CC50 [2]: 407 ± 27.6 µM

C[C@@H]1C[C@H]2[C@@H]3CCC4=CC(=O)C=C[C@]4(C)[C@@]3(F)[C@@H](O)C[C@]2(C)[C@@]1(O)C(=O)CO [Dexamethasone, dexamethasone, reference compound]
IC50 [1]: 0.003 ± 0.001 µM
IC50 [3]: 0.003 ± 0.001 µM
CC50 [2]: > 100 µM
Cell viability (LDH assay) [4]: did not influence cell viability
Mean number of phagocytosed particles per cell ([5]; 72 h of incubation): 59%
Phagocytic activity ([5]; 72 h of incubation): 41 % from control
Macrophage spreading (visually scored) [5]: more evident
Exploratory activity, open field test (C57bl/6j mice; dexamethasone 5 mg/kg i.p.): comparably improved exploratory activity
Motor activity, open field test (C57bl/6j mice; dexamethasone 5 mg/kg i.p.): reduced the LPS-induced motor and behavioral alterations
CD68+ macrophage accumulation in lung tissue (immunostaining) (C57bl/6j mice; [8]): significantly reduced this phenomenon
Plasma IL-6 (C57bl/6j mice; [8]): significantly reduced plasma IL-6
Segmented neutrophils in BAL (C57bl/6j mice; [8]): significantly ameliorated the accumulation of segmented neutrophils

CN(C)CCC=C1c2ccccc2CCc2ccccc21 [Amitriptyline, amitriptyline]
Immobilization Time (male ICR mice; 10 mg/kg): 50.2 ± 12.71 s
